Results taken from the NIST ThermoML archive (doi:10.1021/je900221m).

Test: cn = amount concentration of the nth substance listed, in mol/dm3
Conditions: 101 kPa, Liquid, Taylor dispersion method

NNC(=O)c1ccncc1 [isonicotinic acid hydrazide] + O
binary diffusion coefficient (298.15 K, c1 = 0): 8.26e-10 m2/s | binary diffusion coefficient (298.15 K, c1 = 0.005): 8.25e-10 m2/s | binary diffusion coefficient (298.15 K, c1 = 0.01): 8.23e-10 m2/s | binary diffusion coefficient (298.15 K, c1 = 0.02): 8.21e-10 m2/s | binary diffusion coefficient (298.15 K, c1 = 0.05): 8.14e-10 m2/s | binary diffusion coefficient (298.15 K, c1 = 0.1): 8.09e-10 m2/s | binary diffusion coefficient (310.15 K, c1 = 0): 1.19e-09 m2/s | binary diffusion coefficient (310.15 K, c1 = 0.005): 1.18e-09 m2/s | binary diffusion coefficient (310.15 K, c1 = 0.01): 1.15e-09 m2/s | binary diffusion coefficient (310.15 K, c1 = 0.02): 1.11e-09 m2/s | binary diffusion coefficient (310.15 K, c1 = 0.05): 1.09e-09 m2/s | binary diffusion coefficient (310.15 K, c1 = 0.1): 1.04e-09 m2/s
